Experimental findings from article PMC5268738, “A sequential multi-target Mps1 phosphorylation cascade promotes spindle checkpoint signaling” (eLife, 2017) are described below.

The test system of assay [1] is HeLa Tet-On cells. In words: mitotic index by flow cytometry, Bub1-depleted cells. It is filed as cell-based, human. The settings on record: partial Bub1 depletion, BI 2536 1 µM, nocodazole; n = 3; as shown previously (Jia et al., 2016). The protocol:
HeLa Tet-On cells were initially purchased from Clontech (Mountain View, CA), and were cultured in Dulbecco’s Modified Eagle Medium (DMEM, Invitrogen, Carlsbad, CA) supplemented with 10% fetal bovine serum and 2 mM L-glutamine. The cells were authenticated by genome sequencing and metaphase chromosome spread, and were routinely checked by 4',6-diamidino-2-phenylindole (DAPI) staining to ascertain that they were free of mycoplasma contamination. For G1/S synchronization, cells were treated with 2 mM thymidine (Sigma, St. Louis, MO) for 14–16 hr. For mitotic arrest, cells were treated with 330 nM or 1 µM nocodazole (Sigma) or 100 nM taxol (Sigma) for 12–14 hr. Other chemicals used in this study were: RO3306 (Sigma) at 20 µM, BI 2536 (Selleck Chemicals, Houston, TX) at 1 µM, MG132 (Selleck Chemicals) at 10 µM, okadaic acid (LC lab, Woburn, MA) at 500 nM, and reversine (Cayman Chemical, Ann Arbor, MI) at 1 µM.
For RNAi experiments, cells were transfected with siRNA oligonucleotides (Dharmacon, Lafayette, CO) using Lipofectamine RNAiMAX (Invitrogen) and harvested at 24–72 hr after transfection. The sequences of the siRNAs were (from 5’ to 3’): siBub1-c, […] […]
Cells were synchronized at G1/S with thymidine and released into fresh medium containing 330 nM nocodazole for 13 hr before being harvested. […] The samples were analyzed on a FACSCalibur flow cytometer (BD Biosciences). […]
(In general: Flow cytometry measures light scatter and fluorescence of single cells or particles in a stream.)

The target in assay [2] is T1, C-terminal domain (CTD) of scMad1 (Saccharomyces cerevisiae, UniProt P40957).
T1 sequence (P40957 633-749 limits assumed): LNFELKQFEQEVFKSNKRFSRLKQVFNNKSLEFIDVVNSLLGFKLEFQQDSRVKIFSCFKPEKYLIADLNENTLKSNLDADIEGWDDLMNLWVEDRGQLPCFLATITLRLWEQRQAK
In words: ITC, scBub1 fragment or phospho-peptides with scMad1 CTD. It is filed as binding. The settings on record: 20°C, 25 mM HEPES pH 7.5, 150 mM NaCl, scMad1 20 µM in cell, scBub1 phospho-peptide or fragment 300 µM injected, read-out: Kd, dissociation constant. The protocol:
All isothermal titration calorimetry (ITC) assays were performed with a MicroCal Omega ITC200 titration calorimeter (GE Life Sciences) at 20°C. Recombinant scMad1^CTD protein or scMad1–scMad2 complexes were dialyzed into the HEPES Buffer I (25 mM HEPES, pH 7.5, 150 mM NaCl). Recombinant human Mad1^CTD protein was dialyzed into the HEPES Buffer II (25 mM HEPES, pH 7.5, 50 mM NaCl). For each titration, 300 μl of scMad1 proteins (20 µM) or human Mad1 (50 µM) were added to the calorimeter cell. The scBub1 phospho-peptides or purified scMps1-phosphorylated scBub1_449–530 fragment (300 µM) in the HEPES Buffer I or the human Bub1 phospho-peptides (500 µM) in the HEPES Buffer II were injected with an injection syringe in 19 2-μl portions. The raw data were processed and fitted with the NITPIC software package ([Keller et al., 2012]).
(In general: ITC needs no label: the signal is the heat of the interaction.)

Assay [3] has as its system Bub1^ΔK–Bub3. As to the kind of experiment: in vitro kinase assay on recombinant Bub1^ΔK–Bub3. Type of assay: biochemical, human. The note with it: 400 nM Bub1^ΔK–Bub3, 50 nM Cdk1–Cyclin B1 or 500 nM Mps1, 1 mM ATP, room temperature, 30 min; blot. Here is the method:
For kinase assays, 1 μM Cdc20^ΔN60, 40 μM Mad1^E–Mad2, or 400 nM Bub1^ΔK–Bub3 was incubated with 40 nM Bub1, 500 nM Mps1, and/or 50 nM Cdk1–Cyclin B1 at room temperature for 30 min in the kinase buffer (25 mM Tris-HCl, pH 7.7, 100 mM NaCl, 10 mM MgCl2, 5 mM NaF, 20 mM β-glycerophosphate, 0.1 mM Na3VO4 and 1 mM DTT) supplemented with 1 mM ATP. The reaction mixtures were stopped with the appropriate kinase inhibitors for further protein-binding assays, or quenched with the SDS loading buffer and analyzed by Coomassie blue staining or Western blotting.

The subject of assay [4] is APC/C^Cdc20. As to the kind of experiment: APC/C^Cdc20 inhibition by MCC components (securin ubiquitination assay). Type of assay: biochemical, Xenopus APC/C, human Cdc20. The note with it: BubR1^N and Cdc20^ΔN60, no Bub1^ΔK–Bub3, Mad1^E–Mad2, Cdk1 or Mps1.
The test system of assay [5] is HeLa cells. As to the kind of experiment: mitotic arrest by Mis12–Mad1 fusion proteins (mitotic index). Type of assay: cell-based, human. The settings on record: no spindle poison. The protocol:
Internal deletion mutants were constructed with overlapping extension polymerase chain reaction (PCR). Point mutations were introduced with QuikChange Lightening Site-Directed Mutagenesis kit (Agilent Technologies, Santa Clara, CA). All plasmids were verified by sequencing. Plasmid transfection was performed with the Effectene reagent (Qiagen, German Town, MD) according to the manufacturer’s instructions.
[…] For Plk1 inhibition, BI 2536 was added 1 hr prior to harvest. Collected cells were washed with PBS and fixed with pre-chilled 70% ethanol at −20°C overnight. After being washed with PBS, the fixed cells were permeabilized with 0.2% Triton X-100 in PBS for 20 min. Cells were then incubated with the anti-MPM2 antibody (1:100, Millipore) in PBS containing 1% BSA for 2 hr. After being washed with PBS, cells were incubated with fluorescent secondary antibodies (Invitrogen) in PBS containing 1% BSA for 30 min. After being washed with PBS, cells were stained with 20 μg/ml propidium iodide (Sigma) in PBS containing 200 μg/ml RNase (Qiagen). All staining steps were performed at room temperature. The samples were analyzed on a FACSCalibur flow cytometer (BD Biosciences). Data were processed with the FlowJo software. The mitotic index was defined as the percentage of cells that had 4N DNA content and were also positive for MPM2 staining. […]

The subject of assay [6] is human Mad1 CTD. As to the kind of experiment: in vitro pull-down of human Mad1^CTD by Bub1 peptide beads. Type of assay: binding. The note with it: peptides immobilized on SulfoLink resin, Coomassie. Here is the method:
Recombinant bait proteins or bacteria lysates containing bait proteins were incubated with the appropriate affinity beads. Bait-bound beads were then blocked with 2% fat-free milk when necessary before being mixed with 100 µl diluted prey proteins. After incubation, beads were washed and eluted with the SDS loading buffer. The bead-bound proteins were analyzed by Coomassie blue staining or Western blotting. […] In cases that synthesized peptides were used as bait, peptides were immobilized on SulfoLink resin (Thermo Scientific, Waltham, MA) according to the manufacturer’s instructions. The synthetic scBub1 peptides contained residues 449–473 of scBub1, various phospho-residues, and a cysteine at the N-terminus. All synthetic human Bub1 peptides, except the pS459 peptide, contained residue 455–477 of human Bub1, the appropriate phospho-residues, and a cysteine at the N-terminus. The Bub1 pS459 peptide contained residues 439–480, pT452/pS459, and a cysteine at the C-terminus.

Square brackets hold non-standard residues; d marks the D form. Ends that are not written are not given here. Peptide text beside a SMILES is read from it. pT = C[C@@H](OP(=O)(O)O)[C@H](N)C(=O)O; pS = N[C@@H](COP(=O)(O)O)C(=O)O

As to `CC[C@@H]1C(=O)N(C)c2cnc(Nc3ccc(C(=O)NC4CCN(C)CC4)cc3OC)nc2N1C1CCCC1` [BI 2536, reference compound], the “effect of Plk1 inhibition with partial depletion of Bub1 on the spindle checkpoint (in words)” value in assay [1] is “synergistically inactivated the spindle checkpoint and reduced nocodazole-triggered mitotic arrest”.
As usually defined, the Kd is the constant that tells how readily two partners part at equilibrium. With `CC[C@H](C)[C@H](NC(=O)[C@H](C)NC(=O)[C@H](CC(=O)O)NC(=O)[C@H](CCCCN)NC(=O)[C@H](CO)NC(=O)[C@H](Cc1ccccc1)NC(=O)[C@H](C)NC(=O)[C@@H](NC(=O)[C@@H](NC(=O)[C@@H](NC(=O)[C@@H]1CCCN1C(=O)[C@H](CO)NC(=O)[C@H](CCCNC(=N)N)NC(=O)[C@H](CO)NC(=O)[C@@H](N)CS)[C@@H](C)OP(=O)(O)O)C(C)C)[C@@H](C)OP(=O)(O)O)C(=O)N[C@@H](CC(N)=O)C(=O)N[C@@H](CCC(=O)O)C(=O)N[C@H](C(=O)N[C@@H](Cc1ccccc1)C(=O)N[C@@H](CO)C(=O)N[C@@H](CCSC)C(=O)N[C@@H](Cc1ccccc1)C(=O)N[C@@H](CC(N)=O)C(=O)N[C@@H](CCC(N)=O)C(=O)N[C@@H](Cc1c[nH]cn1)C(=O)N[C@@H](Cc1ccc(O)cc1)C(=O)O)C(C)C` [scBub1 pT453-pT455 peptide] (H-CSRSP[pT]V[pT]AFSKDAINEVFSMFNQHY-OH), in assay [2], the Kd is 1600 nM.
On to `CC[C@H](C)[C@H](NC(=O)[C@H](C)NC(=O)[C@H](CC(=O)O)NC(=O)[C@H](CCCCN)NC(=O)[C@H](CO)NC(=O)[C@H](Cc1ccccc1)NC(=O)[C@H](C)NC(=O)[C@@H](NC(=O)[C@@H](NC(=O)[C@@H](NC(=O)[C@@H]1CCCN1C(=O)[C@H](CO)NC(=O)[C@H](CCCNC(=N)N)NC(=O)[C@H](CO)NC(=O)[C@@H](N)CS)[C@@H](C)O)C(C)C)[C@@H](C)OP(=O)(O)O)C(=O)N[C@@H](CC(N)=O)C(=O)N[C@@H](CCC(=O)O)C(=O)N[C@H](C(=O)N[C@@H](Cc1ccccc1)C(=O)N[C@@H](CO)C(=O)N[C@@H](CCSC)C(=O)N[C@@H](Cc1ccccc1)C(=O)N[C@@H](CC(N)=O)C(=O)N[C@@H](CCC(N)=O)C(=O)N[C@@H](Cc1c[nH]cn1)C(=O)N[C@@H](Cc1ccc(O)cc1)C(=O)O)C(C)C` [scBub1 pT455 peptide] (H-CSRSPTV[pT]AFSKDAINEVFSMFNQHY-OH), for which the Kd in assay [2] was 1600 nM.
For “Cdk1: recombinant GST-Cdk1 (T14A/Y15F) co-expressed with His6-Cyclin B1 [reference compound]”, the “phosphorylation of Bub1^ΔK–Bub3 at S459 (in words)” value in assay [3] is given as “strongly phosphorylated at S459”.
“Mad2^Di: dimeric Mad2 separated by ion exchange chromatography”: in assay [4], the “spontaneous functional MCC formation and APC/C^Cdc20 inhibition (in words)” value is reported as “allowed the spontaneous formation of functional MCC that inhibited securin ubiquitination by APC/C^Cdc20”.
Same read-out and setting: in the case of “Mad2^Mono: monomeric Mad2, mostly the inactive O-Mad2” it was “only showed weak APC/C^Cdc20 inhibition at very high doses”.
Take T716A: Mis12–Mad1 with T716A mutation: the “mitotic arrest by Mis12–Mad1 fusion protein (in words)” value in assay [5] is on record as “abrogated the function of Mis12–Mad1 more strongly than simultaneously mutating the 13 sites outside of the CTD”.
As for “pS459-pT461-pT464 peptide: triply phosphorylated synthetic human Bub1 peptide, residues 455–477, N-terminal cysteine (CKVQP[pS]P[pT]VH[pT]KEALGFIMNMFQA; UniProt O43683 455-477, looked up, fragment)”, in assay [6], the “binding to human Mad1 CTD (in words)” value was “bound more weakly to Mad1 than the pS459-pT461 peptide”.
